This note sets out measurements from patent US11168102B1, “Bicyclic heteroaryl compounds and uses thereof” (Revolution Medicines, Inc., priority 2019, dated 2021).

Bounds are passed on as bounds.

In one test the test system is cellular pERK in PC-9 cells (EGFR Ex19Del). In words: Potency assay: pERK (AlphaLISA SureFire Ultra p-ERK1/2) in PC-9 cells. The format is cell-based. The note with it: Homo sapiens, PC-9, 1 h, PC-9 cells (EGFR Ex19Del), 1 hour incubation, AlphaLISA SureFire Ultra p-ERK1/2; read-out: SOS1 pERK IC50.
For the compound `CN=S1(=O)CC=C(c2cc3c(N[C@H](C)c4cccc(C(F)F)c4F)ncnc3n(C)c2=O)CC1` (stereo partly drawn) [Example 24, 4-(((R)-1-(3-(difluoromethyl)-2-fluorophenyl)ethyl)amino)-8-methyl-6-(1-(methylimino)-1-oxido-1,2,3,6-tetrahydro-1λ^6-thiopyran-4-yl)pyrido[2,3-d]pyrimidin-7(8H)-one], the IC50 stood at 61.4 nM. For `C[C@@H](Nc1ncnc2c1cc(C1CC[S+]([O-])CC1)c(=O)n2C)c1cccc(C(F)F)c1F` (stereo partly drawn) [Example 25, (R)-4-((1-(3-(difluoromethyl)-2-fluorophenyl)ethyl)amino)-8-methyl-6-(1-oxidotetrahydro-2H-thiopyran-4-yl)pyrido[2,3-d]pyrimidin-7(8H)-one], the IC50 was determined as 122 nM. Same read-out and setting: next, `Cc1nc(N[C@H](C)c2cccc(C(F)F)c2F)c2cc(C(=O)N3CCOCC3)c(=O)n(C)c2n1` [Example 26, 4-{[(1R)-1-[3-(difluoromethyl)-2-fluorophenyl]ethyl]amino}-2,8-dimethyl-6-(morpholine-4-carbonyl)-7H,8H-pyrido[2,3-d]pyrimidin-7-one]: 388 nM. On the same count and under the same terms, the figure for `C[C@@H](Nc1ncnc2c1cc(C(=O)N1CC3(COC3)C1)c(=O)n2C)c1cccc(C(F)F)c1F` [Example 26-4] is 423 nM; for `C[C@@H](Nc1ncnc2c1cc(C(=O)N1CC3COCC31)c(=O)n2C)c1cccc(C(F)F)c1F` (stereo partly drawn) [Example 26-5] it is 396 nM.

For the compound `CCC1(O)CN(C(=O)c2cc3c(N[C@H](C)c4cccc(C(F)F)c4F)ncnc3n(C)c2=O)C1` [Example 26-8], the IC50 was 252 nM. The same measure, in the same setting: the figure for `C[C@@H](Nc1ncnc2c1cc(C(=O)N(C)c1cccnc1)c(=O)n2C)c1cccc(C(F)F)c1F` [Example 26-10] is 2090 nM; for `C[C@@H](Nc1ncnc2c1cc(C(=O)N1CC3(CCCO3)C1)c(=O)n2C)c1cccc(C(F)F)c1F` [Example 26-13] it is 1130 nM; for `C[C@@H](Nc1ncnc2c1cc(C(=O)N1CCCC13COC3)c(=O)n2C)c1cccc(C(F)F)c1F` [Example 26-14] it is 122 nM.

Turning to `C[C@@H](Nc1ncnc2c1cc(C(=O)N1CC3(CCOC3)C1)c(=O)n2C)c1cccc(C(F)F)c1F` [Example 26-15], the IC50 was found to be 256 nM. In the case of `C[C@@H](Nc1ncnc2c1cc(C(=O)N1CC[C@@H]3CO[C@@H]3C1)c(=O)n2C)c1cccc(C(F)F)c1F` [Example 26-16], the IC50 is 729 nM. The same measure, in the same setting: the figure for `C[C@@H](Nc1ncnc2c1cc(C(=O)N1CC[C@@H]3CCO[C@@H]31)c(=O)n2C)c1cccc(C(F)F)c1F` [Example 26-17] is 195 nM. `C[C@@H](Nc1ncnc2c1cc(C(=O)N1CC3CCC1CO3)c(=O)n2C)c1cccc(C(F)F)c1F` (stereo partly drawn) [Example 26-18]: the IC50 stood at 589 nM. The same measure, in the same setting: next, `C[C@@H](Nc1ncnc2c1cc(C(=O)N1CC3CCC(C1)O3)c(=O)n2C)c1cccc(C(F)F)c1F` [Example 26-19]: 295 nM; `CC1CN(C(=O)c2cc3c(N[C@H](C)c4cccc(C(F)F)c4F)ncnc3n(C)c2=O)C(C)CO1` (stereo partly drawn) [Example 26-23]: 275 nM; `C[C@@H](Nc1ncnc2c1cc(C(=O)N1CCc3cnccc31)c(=O)n2C)c1cccc(C(F)F)c1F` [Example 26-27]: 803 nM. On the same count and under the same terms, the figure for `C[C@@H](Nc1ncnc2c1cc(C(=O)N1Cc3cccnc3C1)c(=O)n2C)c1cccc(C(F)F)c1F` [Example 26-28] is 766 nM.

Regarding `C[C@@H](Nc1ncnc2c1cc(C(=O)N1C3CCC1CN(C)C3)c(=O)n2C)c1cccc(C(F)F)c1F` [Example 26-32], the IC50 amounted to 216 nM. Same read-out and setting: the figure for `C[C@@H](Nc1ncnc2c1cc(C(=O)N1CC3(CCOCC3)C1)c(=O)n2C)c1cccc(C(F)F)c1F` [Example 26-33] is 152 nM; for `C[C@@H](Nc1ncnc2c1cc(C(=O)N1CCCC13CCOC3)c(=O)n2C)c1cccc(C(F)F)c1F` (stereo partly drawn) [Example 26-34] it is 122 nM. As for `C[C@@H](Nc1ncnc2c1cc(C(=O)N1CCOCC13COC3)c(=O)n2C)c1cccc(C(F)F)c1F` [Example 26-35], the half-maximal inhibitory concentration (IC50) was 193 nM. On the same count and under the same terms, the figure for `COCC1COCCN1C(=O)c1cc2c(N[C@H](C)c3cccc(C(F)F)c3F)ncnc2n(C)c1=O` (stereo partly drawn) [Example 26-37] is 747 nM; for `C[C@@H](Nc1ncnc2c1cc(C(=O)N1CCC[C@@H]1c1nnn[nH]1)c(=O)n2C)c1cccc(C(F)F)c1F` [Example 26-39] it is over 10000 nM. Still for that read-out and setting: next, `CC(=O)N1CC2(C1)CN(C(=O)c1cc3c(N[C@H](C)c4cccc(C(F)F)c4F)ncnc3n(C)c1=O)C2` [Example 26-40]: 453 nM; `C[C@@H](Nc1ncnc2c1cc(C(=O)N1CCCC13CCOCC3)c(=O)n2C)c1cccc(C(F)F)c1F` [Example 26-42]: 194 nM. The same measure, in the same setting: the figure for `C[C@@H](Nc1ncnc2c1cc(C(=O)N1CCN3CCOCC3C1)c(=O)n2C)c1cccc(C(F)F)c1F` (stereo partly drawn) [Example 26-44] is 401 nM; for `C[C@@H](Nc1ncnc2c1cc(C(=O)N1CC(N3CC(C)(O)C3)C1)c(=O)n2C)c1cccc(C(F)F)c1F` [Example 26-45] it is 521 nM. For `C[C@@H](Nc1ncnc2c1cc(C(=O)N1CCOC3(CCOC3)C1)c(=O)n2C)c1cccc(C(F)F)c1F` (stereo partly drawn) [Example 26-46], the IC50 was found to be 322 nM. The same measure, in the same setting: the figure for `C[C@@H](Nc1ncnc2c1cc(C(=O)N1CCOCC13CCOC3)c(=O)n2C)c1cccc(C(F)F)c1F` (stereo partly drawn) [Example 26-47] is 585 nM; for `COCCN1CCN(C(=O)c2cc3c(N[C@H](C)c4cccc(C(F)F)c4F)ncnc3n(C)c2=O)CC1` [Example 26-48] it is 220 nM. Same read-out and setting: the figure for `C[C@@H](Nc1ncnc2c1cc(C(=O)N1CCC(O)(C(F)(F)F)CC1)c(=O)n2C)c1cccc(C(F)F)c1F` [Example 26-50] is 880 nM; for `CC(=O)N1CC2(CCN2C(=O)c2cc3c(N[C@H](C)c4cccc(C(F)F)c4F)ncnc3n(C)c2=O)C1` [Example 26-51] it is 445 nM; for `C[C@@H](Nc1ncnc2c1cc(C(=O)N1CCC13CS(=O)(=O)C3)c(=O)n2C)c1cccc(C(F)F)c1F` [Example 26-52] it is 152 nM. Same read-out and setting: the figure for `Cc1nc(N[C@H](C)c2cccc(C(F)F)c2F)c2cc(CN3CCOCC3)c(=O)n(C)c2n1` [Example 27, 4-{[(1R)-1-[3-(difluoromethyl)-2-fluorophenyl]ethyl]amino}-2,8-dimethyl-6-[(morpholin-4-yl)meth-yl]-7H,8H-pyrido[2,3-d]pyrimidin-7-one] is 852 nM; for `C[C@@H](Nc1ncnc2c1cc(C1(O)CCS(=O)(=O)CC1)c(=O)n2C)c1cccc(C(F)F)c1F` [Example 28, 4-(4-{[(1R)-1-[3-(difluoromethyl)-2-fluorophenyl]-ethyl]amino}-8-methyl-7-oxo-7H,8H-pyrido[2,3-d]pyrimidin-6-yl)-4-hydroxy-1λ^6-thiane-1,1-dione] it is 93.7 nM. As for `C[C@@H](Nc1ncnc2c1cc(C1(O)CC3(C1)CS(=O)(=O)C3)c(=O)n2C)c1cccc(C(F)F)c1F` [Example 28-4], the IC50 is 83.7 nM. The same measure, in the same setting: next, `C[C@@H](Nc1ncnc2c1cc(C1(O)CC3CCC(C1)S3(=O)=O)c(=O)n2C)c1cccc(C(F)F)c1F` (stereo partly drawn) [Example 28-5]: 157 nM. With `C[C@@H](Nc1ncnc2c1cc(C1(O)CS(=O)(=O)C1)c(=O)n2C)c1cccc(C(F)F)c1F` [Example 28-7], the IC50 was found to be 322 nM.

Take `CC(=O)N1CCC(O)(c2cc3c(N[C@H](C)c4cccc(C(F)F)c4F)ncnc3n(C)c2=O)CC1` [Example 28-8]: the IC50 was found to be 32.6 nM. On the same count and under the same terms, next, `C[C@@H](Nc1ncnc2c1cc(C1(O)CCN(C(=O)OC(C)(C)C)C1)c(=O)n2C)c1cccc(C(F)F)c1F` (stereo partly drawn) [Example 28-9]: 369 nM; `C[C@@H](Nc1ncnc2c1cc(C1(F)CCS(=O)(=O)CC1)c(=O)n2C)c1cccc(C(F)F)c1F` [Example 29, 4-(4-{[(1R)-1-[3-(difluoromethyl)-2-fluorophenyl]ethyl]amino}-8-methyl-7-oxo-7H,8H-pyrido[2,3-d]-pyrimidin-6-yl)-4-fluoro-1λ^6-thiane-1,1-dione]: 34.6 nM. Same read-out and setting: the figure for `C[C@@H](Nc1ncnc2c1cc(C1(F)CN(C)C1)c(=O)n2C)c1cccc(C(F)F)c1F` [Example 29-1] is 122 nM. Still for that read-out and setting: next, `CC(=O)N1CC(F)(c2cc3c(N[C@H](C)c4cccc(C(F)F)c4F)ncnc3n(C)c2=O)C1` [Example 29-2]: 91.5 nM; `C[C@@H](Nc1ncnc2c1cc(C1(F)CN(S(C)(=O)=O)C1)c(=O)n2C)c1cccc(C(F)F)c1F` [Example 29-6]: 470 nM.

Regarding `C[C@@H](Nc1ncnc2c1cc(C1(F)CCC3(CC1)CS(=O)(=O)C3)c(=O)n2C)c1cccc(C(F)F)c1F` [Example 29-7], the IC50 stood at 81.1 nM. Still for that read-out and setting: the figure for `C[C@@H](Nc1ncnc2c1cc(C1(F)CC3(C1)CS(=O)(=O)C3)c(=O)n2C)c1cccc(C(F)F)c1F` [Example 29-8] is 53.4 nM. Consider `C[C@@H](Nc1ncnc2c1cc(C1(F)CCP(C)(=O)CC1)c(=O)n2C)c1cccc(C(F)F)c1F` (stereo partly drawn) [Example 29-9], for which the IC50 turned out to be 163 nM. The same measure, in the same setting: the figure for `C[C@@H](Nc1ncnc2c1cc(C1(F)CCS(=O)(=O)C1)c(=O)n2C)c1cccc(C(F)F)c1F` (stereo partly drawn) [Example 29-11] is 44.3 nM; for `C[C@@H](Nc1ncnc2c1cc(C1(F)CCN(C3COC3)CC1)c(=O)n2C)c1cccc(C(F)F)c1F` [Example 29-13] it is 196 nM. On the same count and under the same terms, the figure for `C[C@@H](Nc1ncnc2c1cc(C1(F)CCS(=N)(=O)CC1)c(=O)n2C)c1cccc(C(F)F)c1F` (stereo partly drawn) [Example 29-14] is 35.5 nM.

The same test, now with this note: Homo sapiens, PC-9, 1 h, read-out: SOS1 pERK IC50.
Regarding `C[C@@H](Nc1ncnc2c1cc(C1(O)CCN(C)CC1)c(=O)n2C)c1cccc(C(F)F)c1F` [Example 28-1], the IC50 amounted to 187 nM. On the same count and under the same terms, the figure for `Cc1nc(N[C@H](C)c2cccc(C(F)F)c2F)c2cc(C3(O)CCN(C)CC3)c(=O)n(C)c2n1` [Example 28-2] is 572 nM.

The same test, now with this note: PC-9 cells (EGFR Ex19Del), 1 hour incubation, AlphaLISA SureFire Ultra p-ERK1/2; read-out: SOS1 pERK IC50.
As to `C[C@@H](Nc1ncnc2c1cc(C1(F)CCP(C)(=O)CC1)c(=O)n2C)c1cccc(C(F)F)c1F` (stereo partly drawn) [Example 29-10], the IC50 is 140 nM. Still for that read-out and setting: the figure for `C[C@@H](Nc1ncnc2c1cc(C1(F)CCS(=O)(=O)C1)c(=O)n2C)c1cccc(C(F)F)c1F` (stereo partly drawn) [Example 29-12] is 53.6 nM.
